Results: patent US9890188B2, “Substituted nucleosides, nucleotides and analogs thereof” (ALIOS BIOPHARMA, INC., priority 2014, dated 2018)
Read-outs that look alike come from different tables or passages of the source.

Assays:
[1] = molecular target: human rhinovirus 16 polymerase (HRV16pol) (Human rhinovirus 16, UniProt Q82122); experiment: Picornavirus polymerase inhibition assay: incorporation of tritiated NMP into acid-insoluble RNA products; type: biochemical
Description: The enzyme activity of human rhinovirus 16 polymerase (HRV16pol) was measured as an incorporation of tritiated NMP into acid-insoluble RNA products. HRV16pol assay reactions contained 30 Nm recombinant enzyme, 50 Nm heteropolymeric RNA, about 0.5 μCi tritiated NTP, 0.1 Mm of competing cold NTP, 40 Mm Tris-HCl (Ph 7.0), 3 Mm dithiothreitol, and 0.5 Mm MgCl2. Standard reactions were incubated for 2.5 h at 30° C., in the presence of increasing concentration of inhibitor. At the end of the reaction, RNA was precipitated with 10% TCA, and acid-insoluble RNA products were filtered on a size exclusion 96-well plate. After washing of the plate, scintillation liquid was added and radiolabeled RNA products were detected according to standard procedures with a Trilux Microbeta scintillation counter. The compound concentration at which the enzyme-catalyzed rate was reduced by 50% (IC50) was calculated by fitting the data to a non-linear regression (sigmoidal).
A value of ‘A’ in the table below indicates an IC50 of <5 μM, a value of 13′ indicates an IC50<20 μM, and a value of ‘C’ indicates an IC50 value of <100 μM.

Human rhinovirus 1B [2] = experiment: Picornavirus assay with 24 h compound pre-incubation before infection: human rhinovirus 1B in HeLa-OHIO cells, CellTiter-Glo readout; type: cell-based; conditions: Rhinovirus A, HeLa-OHIO cells pre-incubated with compound for 24 h before infection, 4 d at 33° C.
Description: (§1) HeLa-OHIO cells (Sigma-Aldrich, St. Louis, Mo.) were plated in 96 well plates at a density of 1.5×10^5 cells per well in assay media (MEM without phenol red or L-glutamine, supplemented with 1% FBS, 1% penicillin/streptomycin, 2 mM GlutaGro, and 1×MEM nonessential amino acids, all from Cellgro, Manassas, Va.). Assay setup took place after allowing cells to adhere for 24 h. Compounds dissolved in DMSO were serially diluted in assay media to 2× final concentration. Media was aspirated from the cells, and 100 μl media with compound was added in triplicate. Cells were pre-incubated with the diluted compounds for 24 h before infection. Human rhinovirus 1B (ATCC, Manassas, Va.) was diluted in assay media, and 100 μL was added to cells and compound. The virus inoculum was selected to cause 80-90% cytopathic effect in 4 d. Infected cells were incubated for 4 d at 33° C., 5% CO2. To develop the assay, 100 μL media was replaced with 100 μL CellTiter-Glo® reagent (Promega, Madison, Wis.), and incubated for 10 mins at RT. Luminescence was measured on a Victor X3 multi-label plate reader. Compounds of Formula (I) are active in this assay.

Human rhinovirus 1B [3] = experiment: Picornavirus assay: human rhinovirus 1B cytopathic effect in HeLa-OHIO cells, CellTiter-Glo readout; type: cell-based; conditions: Rhinovirus A, 96 h, compound and virus added together, 4 d at 33° C.
Description: as §1, with “[…]” for “100 μl”, “triplicate.” for “triplicate. Cells were pre-incubated with the diluted compounds for 24 h before infection.”

[4] = recombinant HRV16pol, 2.5 h at 30° C., mean of several independent experiments, read-out: IC50

human rhinovirus 16 polymerase (HRV16pol), sequence (Q82122 1694-2153 limits assumed): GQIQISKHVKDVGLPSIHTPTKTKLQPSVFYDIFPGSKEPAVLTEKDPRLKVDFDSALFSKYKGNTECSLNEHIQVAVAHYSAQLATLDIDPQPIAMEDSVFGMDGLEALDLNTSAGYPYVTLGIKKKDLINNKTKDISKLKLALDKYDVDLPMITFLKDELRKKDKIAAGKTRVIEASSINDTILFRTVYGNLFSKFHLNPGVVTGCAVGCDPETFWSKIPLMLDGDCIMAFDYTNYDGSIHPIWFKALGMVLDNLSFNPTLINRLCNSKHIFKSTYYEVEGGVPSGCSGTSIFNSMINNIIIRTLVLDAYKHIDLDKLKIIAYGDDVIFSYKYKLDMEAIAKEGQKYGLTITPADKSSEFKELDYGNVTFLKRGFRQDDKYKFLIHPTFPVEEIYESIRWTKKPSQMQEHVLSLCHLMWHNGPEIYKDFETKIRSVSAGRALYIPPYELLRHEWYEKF

[N-]=[N+]=NC[C@]1(COP(=O)(O)OP(=O)(O)OP(=O)(O)O)O[C@@H](n2ccc(N)nc2=O)[C@@H](F)[C@@H]1O [Compound 18] showed an IC50 [1, 4] of 5 to 20 µM.

Molecule C[C@@H]1[C@H](n2ccc(N)nc2=O)O[C@@](CO)(CF)[C@H]1O [Compound 41] has an EC50 (Human rhinovirus 1B [2]) of 1 to 10 µM.

[N-]=[N+]=NC[C@]1(CO)O[C@@H](n2ccc(N)nc2=O)[C@@H](F)[C@@H]1O [Compound 4] was tested, and the EC50 (Human rhinovirus 1B [3]) was less than 1000 nM.

For Nc1ccn([C@@H]2O[C@](CF)(COP(=O)(O)OP(=O)(O)OP(=O)(O)O)[C@@H](O)[C@@H]2CF)c(=O)n1 [Compound 50], the IC50 [1, 4] was 5 to 20 µM.

With O=c1ccn([C@@H]2O[C@](CCl)(COP(=O)(O)OP(=O)(O)OP(=O)(O)O)[C@@H](O)[C@@H]2F)c(=O)[nH]1 [Compound 19] the IC50 [1, 4] was less than 5 µM.

Nc1ccn([C@@H]2O[C@@](CO)(C(F)F)[C@@H](O)[C@@H]2O)c(=O)n1 [Compound 44] showed an EC50 (Human rhinovirus 1B [2]) of 10 to 100 µM.

In the case of C=C[C@]1(COP(=O)(O)OP(=O)(O)OP(=O)(O)O)O[C@@H](n2ccc(N)nc2=O)[C@@H](F)[C@@H]1O [Compound 23], the IC50 [1, 4] is reported as less than 5 µM.

C=C[C@]1(CO)O[C@@H](n2ccc(N)nc2=O)[C@@H](F)[C@@H]1O [Compound 9] gave an EC50 (Human rhinovirus 1B [3]) of less than 1000 nM.

C#C[C@]1(COP(=O)(O)OP(=O)(O)OP(=O)(O)O)O[C@@H](n2ccc(N)nc2=O)[C@@H](F)[C@@H]1O [Compound 22] was tested, and the IC50 [1, 4] was 5 to 20 µM.

For Nc1ccn([C@@H]2O[C@@](COP(=O)(O)OP(=O)(O)OP(=O)(O)O)(C(F)F)[C@@H](O)[C@@H]2O)c(=O)n1 [Compound 52], the IC50 [1, 4] was less than 5 µM.

Molecule Nc1ccn([C@@H]2O[C@@](CO)(CCl)[C@@H](O)[C@@H]2F)c(=O)n1 [Compound 3] has an EC50 (Human rhinovirus 1B [3]) of less than 1000 nM.

Nc1ccn([C@@H]2O[C@@](CO)(CF)[C@@H](O)[C@@H]2F)c(=O)n1 [Compound 7] was tested, and the EC50 (Human rhinovirus 1B [3]) was less than 1000 nM.

Molecule [N-]=[N+]=NC[C@]1(CO)O[C@@H](n2ccc(N)nc2=O)C[C@@H]1O [Compound 37] has an EC50 (Human rhinovirus 1B [3]) of less than 1000 nM.

In the case of CC[C@]1(COP(=O)(O)OP(=O)(O)OP(=O)(O)O)O[C@@H](n2ccc(N)nc2=O)[C@@H](F)[C@@H]1O [Compound 24], the IC50 [1, 4] is reported as less than 5 µM.

Nc1ccn([C@@H]2O[C@](CF)(COP(=O)(O)OP(=O)(O)OP(=O)(O)O)[C@@H](O)[C@@H]2O)c(=O)n1 [Compound 53] was tested, and the IC50 [1, 4] was less than 5 µM.

With Nc1ccn([C@H]2C[C@H](O)[C@](COP(=O)(O)OP(=O)(O)OP(=O)(O)O)(C(F)F)O2)c(=O)n1 [Compound 54] the IC50 [1, 4] was less than 5 µM.

CC[C@]1(CO)O[C@@H](n2ccc(N)nc2=O)[C@@H](F)[C@@H]1O [Compound 10] gave an EC50 (Human rhinovirus 1B [3]) of 1000 to 10000 nM.

In the case of C#C[C@@H]1[C@H](n2ccc(N)nc2=O)O[C@](CF)(COP(=O)(O)OP(=O)(O)OP(=O)(O)O)[C@H]1O [Compound 48], the IC50 [1, 4] is reported as less than 5 µM.

For Nc1ccn([C@@H]2O[C@](CF)(COP(=O)(O)OP(=O)(O)OP(=O)(O)O)[C@@H](O)[C@@H]2F)c(=O)n1 [Compound 21], the IC50 [1] was less than 5 µM.

C[C@@H]1[C@H](n2ccc(N)nc2=O)O[C@](CF)(COP(=O)(O)OP(=O)(O)OP(=O)(O)O)[C@H]1O [Compound 47] was tested, and the IC50 [1, 4] was less than 5 µM.

Work on Nc1ccn([C@@H]2O[C@@](CO)(CF)[C@@H](O)[C@@H]2O)c(=O)n1 [Compound 45] yielded an EC50 (Human rhinovirus 1B [2]) of 1 to 10 µM.

Nc1ccn([C@@H]2O[C@](CF)(COP(=O)(O)OP(=O)(O)OP(=O)(O)O)[C@@H](O)[C@@H]2Cl)c(=O)n1 [Compound 16] was tested, and the IC50 [1, 4] was 20 to 100 µM.

In the case of Nc1ccn([C@@H]2O[C@@](CO)(CF)[C@@H](O)[C@@H]2Cl)c(=O)n1 [Compound 2], the EC50 (Human rhinovirus 1B [3]) is reported as 1000 to 10000 nM.

For Nc1ccn([C@@H]2O[C@](CBr)(COP(=O)(O)OP(=O)(O)OP(=O)(O)O)[C@@H](O)[C@@H]2F)c(=O)n1 [Compound 20], the IC50 [1, 4] was 20 to 100 µM.
